Data published in publication PMC11530130, “Peripherally restricted PICK1 inhibitor mPD5 ameliorates pain behaviors in murine inflammatory and neuropathic pain models” (JCI Insight, 2024).
Several values for one entry are separate records, joined by “and”; a condition that tells them apart may be missing. Identical values can stand only once.

How the values were obtained:
[1] = Stability of mPD5 in PBS, 30 days at 5 °C and 25 °C, HPLC-UV-MS
Experimental: SUPPORTING INFORMATION: Method Section.
Sex as a biological variable.
All peptides were ordered from WuXI AppTec (Shanghai, China) or TAG-Copenhagen […]
Assessment of solubility and stability of mPD5.
Solubility was determined by visual inspection of samples dissolved in increasing concentration in 10 mM PBS as judged by full transparency and monophasic appearance.
Stability was addressed by […] for four concentrations (2, 20, 50, and 200 µM), by leaving mPD5 in PBS at 5 °C and 25 °C for 30 days followed by HPLC-UV-MS. […]
Superdex200 Increase 10/300.

[2] = test system: mice, spared nerve injury (SNI) model; assay: Single exposure place preference (sePP), SNI mice; format: in vivo, mouse; parameters: time spent in the paired compartment, individual mice: reference not given here
Experimental: Single exposure place preference.
Initial perception of the drugs was measured by single exposure place preference experiments performed in an elongated three compartment apparatus (67.5 cm x 24 cm) with a biased design of different floor textures and wall patterns and a neutral zone in the middle. We have […]
compartment and that a single exposure of psychostimulants in the grey compartment sufficiently changes the preference towards that compartment (9-11). For further details of the setup, we refer to (10). Experiments lasted three days with exposure sessions on days one and two and a preference test on day three. […]
Mice were left in Med-Associates square behavioral chambers (27 cm x 27 cm) to freely roam around for 60 min, four days in a row. […] On day three, both control and SNI mice were placed directly in the chambers and recorded for 60 min. On day four, control mice were injected s.c. with PBS, and SNI mice were injected with either 10 μmol/kg mPD5 or PBS immediately before being placed in the chambers and recorded for 60 min. The recordings were analyzed using the Avisoft SASLab Pro software (Version 5.02.07, Avisoft Bioacoustics) as described in (12), applying a fast fourier transformation (FFT) (1024 FTT length, 100% frame size, Blackman window, and 87.5% time window overlap). […]

[3] = 30 days 5°C, nominal conc. 2 μM
[4] = 30 days 5°C, nominal conc. 20 μM
[5] = 30 days 5°C, nominal conc. 50 μM
[6] = 30 days 5°C, nominal conc. 200 μM
[7] = 30 days 25°C, nominal conc. 2 μM
[8] = 30 days 25°C, nominal conc. 20 μM
[9] = 30 days 25°C, nominal conc. 50 μM
[10] = 30 days 25°C, nominal conc. 200 μM

CCCCCCCCCCCCCC(=O)N(CCOCCOCCC(=O)N[C@@H](Cc1c[nH]cn1)C(=O)N[C@@H](Cc1c[nH]c2ccccc12)C(=O)N[C@@H](CC(C)C)C(=O)N[C@@H](CCCCN)C(=O)N[C@H](C(=O)O)C(C)C)CCOCCOCCC(=O)N[C@@H](Cc1c[nH]cn1)C(=O)N[C@@H](Cc1c[nH]c2ccccc12)C(=O)N[C@@H](CC(C)C)C(=O)N[C@@H](CCCCN)C(=O)N[C@H](C(=O)O)C(C)C [mPD5, myristoyl-NPEG4-(HWLKV)2]
Measured conc. mPD5 [1, 3]: 0.5 µM | UV-HPLC peak area [1, 3]: 37 | pH [1, 3]: 7.37 | Measured conc. mPD5 [1, 4]: 17 µM | UV-HPLC peak area [1, 4]: 1196 | pH [1, 4]: 7.40 | Measured conc. mPD5 [1, 5]: 49 µM | UV-HPLC peak area [1, 5]: 3347 | pH [1, 5]: 7.39 | Measured conc. mPD5 [1, 6]: 194 µM | UV-HPLC peak area [1, 6]: 6665 | pH [1, 6]: 7.37 | Measured conc. mPD5 [1, 7]: 0.4 µM | UV-HPLC peak area [1, 7]: 26 | pH [1, 7]: 7.37 | Measured conc. mPD5 [1, 8]: 17 µM | UV-HPLC peak area [1, 8]: 1161 | pH [1, 8]: 7.39 | Measured conc. mPD5 [1, 9]: 48 µM | UV-HPLC peak area [1, 9]: 3325 | pH [1, 9]: 7.41 | Measured conc. mPD5 [1, 10]: 203 µM | UV-HPLC peak area [1, 10]: 7005 | pH [1, 10]: 7.36 | shelf stability ([1]; PBS, 30 days, 5°C and 25°C): excellent shelf stability | time spent in the paired compartment, individual mice ([2]; SNI mice conditioned with 30 μmol/kg): 0.9648 and 1.369 and 0.722 and 0.8519 and 0.9815 and 0.6715 and 0.5887 and 0.7233 and 1.085 and 1.235 and 0.7664 | time spent in the paired chamber compared to PBS (sePP) ([2]; SNI, male mice, s.c. 30 μmol/kg): did not change the time spent in the paired chamber
